# Measured values from patent publication US10022308B2, “Wipe and methods for improving skin health” (Kimberly-Clark Worldwide, Inc., priority 2003, dated 2018).
# Tests used:
# [1] = test system: P. mirabilis (ATCC #29906); test: Adhesion assay for P. mirabilis on synthetic skin substrate; format: cell-based, Proteus mirabilis; details: 50 μl of 10% botanical stock in TSB + 50 μl bacteria, 3 h room temperature, VITRO-SKIN, AlamarBlue; >100% more cells adhered than control
# Description: (§1) The protocols for testing the ability of botanical compounds to elicit any of these desired effects are set forth in the Examples. In general, the ability of a botanical compound to affect the adherence of an organism to skin is determined by comparing the adherence of the organism to skin in the presence of the botanical compound, to the adherence of the organism to skin in the absence of the botanical compound. If the amount of adherence in the presence of the botanical compound is 150% or greater than the amount of adherence in the absence of the botanical compound, then the botanical compound is an adherence promoter for that organism. If the amount of adherence in the presence of the botanical compound is 50% or less than the amount of adherence in the absence of the botanical compound, then the botanical compound is an anti-adherent for that organism.
# (§2) Each of the botanical compounds listed in Table 1 was screened to measure the effect of the compound on the adhesion of P. mirabilis, S. epidermidis, or P. aeruginosa to the skin. […]
# (§3) The next day, the optical density (650 nm) of the TSB culture was read. […] AlamarBlue® levels were read (emission levels read at 590 nm) in an Ascent plate reader (excitation level of 544 nm) at 1 and 2 hours. When not being read, the plate was incubated at 37° C. with a lid. […]
# [2] = test system: S. epidermidis (ATCC #12228); test: Adhesion assay for S. epidermidis on synthetic skin substrate; format: cell-based, Staphylococcus epidermidis; details: 50 μl of 10% botanical stock in TSB + 50 μl bacteria, 3 h room temperature, VITRO-SKIN, AlamarBlue
# Description: as §1, §2, §3
# [3] = test system: P. aeruginosa (ATCC #27853); test: Adhesion assay for P. aeruginosa on synthetic skin substrate; format: cell-based, Pseudomonas aeruginosa; details: 50 μl of 10% botanical stock in TSB + 50 μl bacteria, 3 h room temperature, VITRO-SKIN, AlamarBlue
# Description: as §1, §2, §3
# [4] = test system: Lactobacillus acidophilus (ATCC #:314); test: Adhesion assay for Lactobacillus acidophilus on synthetic skin substrate; format: cell-based; details: 50 μl of 10% botanical stock in TSB + 50 μl bacteria, 3 h at 33° C. or 37° C., VITRO-SKIN, AlamarBlue
# Description: as §1, with “If the amount of adherence in the presence of the botanical compound is 50% or less than the amount of adherence in the absence of the botanical compound, then the botanical compound is an anti-adherent for that organism.” left out
# (§4) Results are given in Table 1, which gives the percent adherence to the skin of P. mirabilis, S. epidermidis, P. aeruginosa, L. acidophilus, and C. albicans for the various botanical compound samples, relative to the control. The percentage is based on the number of cells that adhered to the skin for the botanical samples as compared to the number of cells that adhered to the skin in the control, as determined by the AlamarBlue® levels. […]
# The next day, the optical density (650 nm) of the Lactobacilli broth culture was read. […] AlamarBlue® levels were read (emission levels read at 590 nm) in an Ascent plate reader (excitation level of 544 nm) at 2 and 3 hours. […]
# [5] = test system: C. albicans (ATCC #10231); test: Adhesion assay for Candida albicans on synthetic skin substrate; format: cell-based; details: 50 μl of 10% botanical stock in TSB + 50 μl yeast, 3 h at 33° C., VITRO-SKIN, AlamarBlue
# Description: as §1, §4
# The next day, the optical density (650 nm) of the SDB culture was read. […]
smiles,measurement,setting,value
CCCC(O)CO (centres unmarked) [Hydrolite-5],percent adherence to the skin of P. mirabilis (PM) relative to the control,[1],9.2%
same,percent adherence to the skin of S. epidermidis (SE) relative to the control,[2],141.5%
same,percent adherence to the skin of P. aeruginosa (PA) relative to the control,[3],5.1%
same,percent adherence to the skin of L. acidophilus (LA) relative to the control,[4],169.66%
same,percent adherence to the skin of C. albicans (CA) relative to the control,[5],3.9%
